# From US20070161108A1, “Bob-1 specific T cells and methods to use” (priority 2004, published 2007)
# Key:
# PBMC of a healthy person = test: gamma-IFN-ELISPOT, in vitro stimulation of PBMC of a healthy person with peptide-loaded dendritic cells (FIG. 14); format: cell-based, human; conditions: pool 1 or pool 4 presented by autologous dendritic cells
# Text: Given are the number of peptide-specific T-cells after stimulation of the pool 1-specific or the pool 4-specific cell lines with the respective pools and the indicated peptides. […] The T-cell lines had been generated by stimulation of peripheral blood mononuclear cells (PBMC) with five different pools containing each five 20 amino acid (aa) long peptides with a 10 amino acid long overlap, corresponding to aa 1 to aa 256 of the Bob-1 protein. The peptide pools were presented by autologous dendritic cells that had been generated by a standard protocoll (Berger T G, Feuerstein B, Strasser E, Hirsch U, Schreiner D, Schuler G, Schuler-Thurner B. Large-scale generation of mature monocyte-derived dendritic cells for clinical application in cell factories. Journal of immunological methods 2002, 268: 131-140). […] Therefore, it represents a model for an in vivo induction of a Bob-1 specific T-cell response.
# For this, PBMC of a healthy person were stimulated—as described above—with autologous dendritic cells loaded with a selection of Bob-1 derived peptides. […]
# [1] = system: T-cell lines from an HIV-2 infected patient; test: gamma-interferon-ELISPOT-assay, T-cell lines from an HIV-2 infected patient (FIG. 12); format: cell-based, human; conditions: PBMC stimulated by pool of 5 overlapping peptides aa151-210
# Description: FIG. 12 Recognition of Bob-1 specific peptide aa171-190 by T-cell lines from an HIV-2 infected patient. PBMC from the patient had been stimulated by a pool of 5 overlapping peptides spanning aa151-210 of the Bob-1 sequence. Outgrowing cells were tested in a gamma-interferon-ELISPOT-assay of recognition of the peptide pool aa151-210 and of the individual peptides.
sequence,measurement,setting,value
QAPLTYFPWPQPLSTLPTST [peptide aa171-190],"Recognition by T-cell lines, or induction of Bob-1-specific T-cells, gamma-IFN-ELISPOT",PBMC of a healthy person,specific recognition
same,Recognition in gamma-interferon-ELISPOT,[1],specific recognition
